The values below come from US20200085839A1, “COMBINATION OF IMMUNOTHERAPEUTICS AND BISFLUOROALKYL-1,4-BENZODIAZEPINONE COMPOUNDS FOR TREATING LYMPHOMAS” (Ayala Pharmaceuticals Inc., priority 2018, published 2020).

In assay [1] the test system is RPMI-8226 human multiple myeloma cell line. Briefly: Combination index (Chou and Talalay) of Compound (1) with BCMA-CAR-T. It counts as cell-based. Particulars: Compound (1) 10-80 nM with BCMA-CAR-T 10^9 cells. The protocol:
(§1) Drug interaction analysis and the confirmation of synergism is determined by the method of Chou and Talalay. Linear regression analysis of dose-response data is performed using Calcusyn 1.2 software (Biosoft, Cambridge, United Kingdom) to calculate a combination index (CI) for each individual drug combination. To ensure valid statistical analysis, only experimental data for which the linear correlation coefficient of the median-effect plot was more than 0.9 are included. CI values are defined as: […]
(§2) The combination of Compound (1) with BCMA-CAR-T in models of human multiple myeloma in vitro lead to synergistic cell killing. Specifically, Compound (1) when used at concentrations between 10-80 nM (concentrations that are relevant in patients) in combination with BCMA-CAR-T at concentrations of 10^9 cells produce synergistic cell killing in the U266 and RPMI-8226 human multiple myeloma cell lines.

For assay [2], the system named is U266 human multiple myeloma cell line. Described as above. It counts as cell-based. As to conditions: Compound (1) 10-80 nM with BCMA-CAR-T 10^9 cells. The protocol: as §1, §2

The structures appear in SMILES notation.

In the case of `CN1C(=O)[C@@H](NC(=O)[C@H](CCC(F)(F)F)[C@H](CCC(F)(F)F)C(N)=O)N=C(c2ccccc2)c2ccccc21` [Compound 1, (2R,3S)—N-((3S)-1-methyl-2-oxo-5-phenyl-2,3-dihydro-1H-1,4-benzodiazepin-3-yl)-2,3-bis(3,3,3-trifluoropropyl)succinamide], the “cell killing, combination index (CI) class” value in assay [1] and in assay [2] was “synergistic (0.3 < CI ≤ 0.9)” in each case.
